Reference: PMC10964573, “OCTN2- and ATB^0,+-targeted nanoemulsions for improving ocular drug delivery” (Journal of Nanobiotechnology, 2024)
Entries after “also recorded” stand apart in the source; their conditions may differ.

Assay: Solubility of DEX in oils (shake flask)
Format: physicochemical
Conditions: Labrafil M1944 CS versus medium-chain triglycerides, soybean oil, olive oil; 37 °C, 72 h
Procedure: The solubility of drug in oils is the basis for the selection of the oil phase. The solubility of DEX in various oils, including medium-chain triglycerides, soybean oil, olive oil, and Labrafil® M1944 CS was determined by the shake flask method. Briefly, an excessive amount of DEX was added to 1mL of oil in an Eppendorf tube and mixed in a water bath sonication. Then the tubes were placed in a water bath shaker at 37 ± 0.5 °C. After shaking for 72 h, the samples were centrifuged at 10,000 rpm for 10 min. The supernatant was extracted with ethanol solution by sonicating for 20 min and centrifuging at 10,000 rpm for 10 min. The DEX concentration in the supernatant was determined by high-performance liquid chromatography. […] Next, the effect of the amount of Labrafil® M1944 CS content on the physicochemical properties of the DEX NEs was screened (Table S1). When the amount of Labrifil® M 1944 CS was 50 mg, DEX NEs had higher drug content (0.64±0.003mg/mL) and EE (91.3±2.8%), and this formulation was selected to further prepare DEX SC-NEs.

For `C[C@@H]1C[C@H]2[C@@H]3CCC4=CC(=O)C=C[C@]4(C)[C@@]3(F)[C@@H](O)C[C@]2(C)[C@@]1(O)C(=O)CO` [DEX, Dexamethasone], the solubility in oil was “high solubility; also recorded: highest”.
